Values of other authors as cited in patent US20130011354A1, “Compositions For Enhancing Hair Growth” (Allergan, Inc., priority 2009, published 2013).

Test system: eyelashes
Conditions: Lumigan ophthalmic solution applied in the FDA approved manner for glaucoma

In the case of `CCNC(=O)CCC/C=C\C[C@@H]1[C@@H](/C=C/[C@@H](O)CCc2ccccc2)[C@H](O)C[C@@H]1O` [Bimatoprost, cyclopentane N-ethyl heptanamide-5-cis-2-(3α-hydroxy-5-phenyl-1-trans-pentenyl)-3,5-dihydroxy, [1α,2β,3α,5α]], the growth of eyelashes is given as “effective to increase the growth of eyelashes”.
